≈ marks a conversion by molar mass, not a printed value.
Tested on: DLBCL SUDHL4 cells
Experiment: CellTiter-Glo 3D cell viability (intracellular ATP) after 48 h drug treatment, 2D suspension vs 3D microcompartments
Type: cell-based
Conditions: Homo sapiens, SU-DHL-4, 48 h
Procedure: FIG. 11: Comparison of the cytotoxic effects of doxorubicin and of etoposide on DLBCL SUDHL4 cells grown in 2D (suspension) or in 3D ± ECM ± Resto. Cells or spheroids at D7 post-encapsulation are treated for 48 h with drugs. At the end of the treatment, cell viability is measured using the CellTiter-Glo® 3D Cell Viability Assay Kit (Promega).
As shown above, drug diffusion is altered in the 3D structures according to the invention. The purpose of the present experiment is to verify whether this alteration is correlated with chemoresistance. For this purpose, the efficacy of two conventional chemotherapies (doxorubicin and etoposide) was tested in parallel on cells grown in suspension (2D) and on cell clusters from cellular microcompartments according to the invention, containing lymphomatous cells alone or in the presence of ECM, with or without Resto stromal cells, treated with increasing concentrations of these chemotherapy molecules.
After 48 h of incubation, cell survival was assessed by measuring intracellular ATP using the CellTiter-Glo® 3D Cell Viability Assay Kit (Promega).

[1] = 3D (lymphomatous cells alone), SUDHL4, D7 post-encapsulation, 48 h
[2] = 3D + ECM + Resto, SUDHL4, D7 post-encapsulation, 48 h
[3] = 3D + ECM, SUDHL4, D7 post-encapsulation, 48 h

| IC50 (2D (suspension), SUDHL4, 48 h) [µg/mL] | IC50 [1] [µg/mL] | IC50 [2] [µg/mL] | IC50 [3] [µg/mL] | Compound |
| --- | --- | --- | --- | --- |
| 0.09 (≈ 0.166 µM) | 0.4 (≈ 0.736 µM) | 0.4 | 0.4 | COc1cccc2c1C(=O)c1c(O)c3c(c(O)c1C2=O)C[C@@](O)(C(=O)CO)C[C@@H]3O[C@H]1C[C@H](N)[C@H](O)[C@H](C)O1 [Doxorubicin, doxorubicin] |
| 3.2 (≈ 5.44 µM) | 4.4 (≈ 7.48 µM) | 7 | 9.3 | COc1cc([C@@H]2c3cc4c(cc3[C@@H](O[C@@H]3O[C@@H]5CO[C@@H](C)O[C@H]5[C@H](O)[C@H]3O)[C@H]3COC(=O)[C@H]23)OCO4)cc(OC)c1O [Etoposide, etoposide] |
